From patent US9975944B2, “Synthetic peptides for the treatment of autoimmune diseases” (TEL HASHOMER MEDICAL RESEARCH INFRASTRUCTURE AND SERVICES …, priority 2013, dated 2018)
Square brackets hold non-standard residues; d marks the D form. Ends that are not written are not given here. Cit = NC(=O)NCCC[C@H](N)C(=O)O

Legend:
[1] = system: TNF-α; test: TNF-α gene expression in mononuclear cells derived from synovial fluid of RA patients, real-time PCR; format: cell-based, human; settings: compared to medium alone (control)
Procedure: To assess the effect of the Cit-ME peptide (SEQ ID NO: 1) on inflammatory related genes expression, peripheral blood mononuclear cells derived from synovial fluid rheumatoid arthritis patients were incubated with the Cit-ME multi-epitope citrullinated peptide for 24 h. The effect of the peptide on gene expression was compared also to the effect of infliximab, a TNF-α blocker, which is an antirheumatic drug that acts as an anti-inflammatory compound. […] Results were determined by real-time PCR.

[2] = system: CD4+CD25+Foxp3+ T cells; test: Regulatory T cell proportion in PBMC of RA patients, FACS; format: cell-based, human; settings: 48 hours
Procedure: Given the observed immunomodulation of cytokines following incubation of peripheral blood mononuclear cells obtained from rheumatoid arthritis patients with citrullinated peptides, the citrullinated peptides were tested for their ability to exert an effect on the T regulatory population proportion. Peripheral blood mononuclear cells of rheumatoid arthritis patients were cultured in the presence of 1.25 μg/ml of the peptides (Fil-Cit, β-Fib-Cit, and Cit-ME; FIGS. 6A, 6B and 6E, respectively, and Fil-NC, β-Fib-NC and Non-Cit-ME; FIGS. 6C, 6D and 6G, respectively), and Infliximab (FIG. 6F) for 48 hours. Cells cultured with medium devoid of the peptides and Infliximab served as control (FIG. 6H). Thereafter, cells were stained for the expression of CD4, CD25, and FoxP3 and analyzed by FACS. […] Mean percentage of CD4^+CD25^+Foxp3^+ T cells in the presence of Infliximab was increased by 14% as compared to medium (FIG. 6F and FIG. 6H, respectively). Thus, citrullinated peptides are able to induce the expansion of the T regulatory cell population.

[3] = system: T cells; test: T cells apoptosis in PBMC of RA patients, annexin V/PI FACS; format: cell-based, human; settings: 24 hours, gated on PI negative cells
Procedure: To assess the ability of the citrullinated peptides to affect T cells apoptosis, peripheral blood mononuclear cells of rheumatoid arthritis patients were cultured in the presence of citrullinated, non-citrullinated peptides and Infliximab for 24 hours. Cells were double-stained for annexin V-fluorescein isothiocyanate (FITC) and PI-PE (apoptosis/necrosis markers) and analyzed by FACS. The results in FIG. 8 are presented after gating for PI negative cells (live cells). The β-Fib-Cit and Cit-ME (FIGS. 8A and 8B, respectively) induced T cells apoptosis (by 20% and 18%, respectively) as compared with the non-citrullinated peptides Non-Cit-β-Fib (FIG. 8D) and Non-Cit-ME (FIG. 8E). Infliximab induced apoptosis by 28% (FIG. 8C) as compared with the medium control (FIG. 8F).

[4] = system: pathogenic Th17 cells; test: Pathogenic Th17 cell proportion in PBMC of RA patients, FACS; format: cell-based, human; settings: 48 hours
Procedure: To assess ability of the citrullinated peptides to affect the pathogenic Th17 cells population proportion, peripheral blood mononuclear cells of rheumatoid arthritis patients were cultured in the presence of citrullinated peptides, non-citrullinated peptides and Infliximab for 48 hours. In the last 4 hours phorbol12-myristate 13-acetate (PMA), ionomycin and brefeldin A were added to the culture. Thereafter cells were stained with antibodies against CD3 and IL-17. As shown in FIGS. 7A-7H, significant down-regulation in the mean percentage of pathogenic Th17 cells was detected following incubation with the citrullinated peptides: decrease of 21% (Fil-Cit; E), 5% (β-Fib-Cit; F), and 26% (Cit-ME; G) as compared with the non-citrullinated matched peptides (FIG. 7A-7C, respectively). Mean percentage of pathogenic Th17 cells in the presence of Infliximab was decreased by 48% (FIG. 7H) as compared to medium (FIG. 7D).

[5] = system: IFN-γ; test: IFN-γ gene expression in peripheral blood mononuclear cells of RA patients, real-time PCR; format: cell-based, human; settings: PBMC of RA patients, 24 h incubation, peptide 0.25 or 1.25 μg/ml, compared with control non-citrullinated peptides
Excerpt: (§1) Citrullinated peptide derived from filaggrin, set forth in SEQ ID NO: 3, (HQCHQESTCitGRSRGRCGRSGS) designated Fil-Cit and citrullinated peptide derived from β-fibrinogen sequence (designated β-Fib-Cit) set forth in SEQ ID NO: 2 (CitPAPPPISGGGYCitACit) were examined for their ability to immunomodulate cytokine expression in peripheral blood mononuclear cells from rheumatoid arthritis patients. Matched non-citrullinated forms of those peptides served as control, and were designated Fil-NC and β-Fib-NC, respectively. All rheumatoid arthritis patients who participated in the study signed an informed consent and the research was approved by the Sheba Helsinki committee (approval No 9247-12-SMC). All procedures were conducted according to good clinical practice (GCP) regulations.
(§2) Peripheral blood mononuclear cells were isolated from blood samples using Ficoll-Paque density gradient centrifugation. The extracted cells were cultivated in the presence of Fil-Cit (0.25 μg/ml or 1.25 μg/ml), β-Fib-Cit (0.25 μg/ml or 1.25 μg/ml) and the control matched peptides. Total RNA was extracted 24 h after incubation with the peptides.

[6] = system: TGF-β; test: TGF-β gene expression in peripheral blood mononuclear cells of RA patients, real-time PCR; format: cell-based, human; settings: for mean expression levels of TGF-β: PBMC from 6 RA patients, compared with matched non-citrullinated peptide; for TGF-β gene expression level: PBMC of RA patients, 24 h incubation, peptide 0.25 or 1.25 μg/ml, compared with control non-citrullinated peptides
Excerpt: as §1, §2
To further investigate the ex vivo effects of the citrullinated peptides on TGF-β expression, peripheral blood mononuclear cells obtained from 6 rheumatoid arthritis patients were cultured in the presence of citrullinated or control peptides. […] Up-regulation was likewise indicated in peripheral blood mononuclear cells incubated with Fil-Cit.

[7] = system: TNF-α; test: TNF-α gene expression in peripheral blood mononuclear cells of RA patients, real-time PCR; format: cell-based, human; settings: PBMC of RA patients, 24 h incubation, peptide 0.25 or 1.25 μg/ml, compared with control non-citrullinated peptides
Excerpt: as §1, §2

[8] = system: IL-17; test: IL-17 gene expression in peripheral blood mononuclear cells of RA patients, real-time PCR; format: cell-based, human; settings: PBMC of RA patients, 24 h incubation, peptide 0.25 or 1.25 μg/ml, compared with control non-citrullinated peptides
Excerpt: as §1, §2

[9] = system: T cells derived from the spleen; test: Apoptosis of T cells from the spleen of AIA rats, Annexin V/PI staining; format: in vivo, rat; settings: gated for PI and CD4+, two independent experiments, control 13±1%
Procedure: To assess apoptosis of T cells derived from the spleen of treated rats, the Annexin V/PI staining method was preformed. FIGS. 14A-14C are representative histograms of cells treated with Cit-Me (FIG. 14A), non-Cit-Me (FIG. 14B) or untreated (FIG. 14C). The histograms present apoptosis measured by Annexin V^+. First, cells were gated for PI and CD4^+ and next analyzed for percentage of Annexin-V positive cells. […] A significant increase (p<0.01) in the mean apoptotic rate was determined in cells from the spleen of Cit-ME treated rats (19.5±1.8%) in comparison with Non-Cit-ME or control (13.8±1.3% and 13±1%, respectively).

[10] = system: AIA rats; test: Histological signs of arthritis in ankle joints of AIA rats; format: in vivo, rat; settings: day 28 post disease induction, H&E, untreated 1.75±0.41
Procedure: To evaluate the histological signs of arthritis, rats were sacrificed and ankle joints were collected on day 28 post disease induction. The joints were fixed immediately for 24 hours in 4% paraformaldehyde, then decalcified in rapid bone decalcifier (RDO; Apex Engineering, Plainfield, Ill., USA) for 6 hours at room temperature, and further fixed in 4% paraformaldehyde before embedding in paraffin. Sections (5 μm thick) were rehydrated in a graded ethanol series and stained with haematoxylin & eosin (H&E). FIGS. 11A to 11C show representative H&E stained joint tissue sections (magnification ×100). Arrowheads denote the infiltrated zones, scale bar=200 μm. The specimens were scored for severity of inflammation in the synovium, pannus formation, cartilage, and bone erosion. A close correlation between the clinical signs and the histopathological findings was found.

[11] = system: CD4+CD25+FoxP3+ regulatory T cells; test: Regulatory T cells in splenocytes of AIA rats, FACS; format: in vivo, rat
Excerpt: Splenocytes from rats at day 28 post disease induction were stained with anti-CD4-FITC, anti-CD25-APC, and anti-Foxp3-PE (eBioscience) mAbs and analyzed by FACS. In representative outputs as shown in FIG. 12A-C, Regulatory T cells subpopulation was higher in Cit-ME treated rats (9%), compared to 7% and 6.2% in Non-Cit-ME peptide and untreated rats, respectively. Statistical analysis of the results is shown in FIG. 12D (Cit-ME n=9, Non-Cit-ME n=11, untreated rats n=7).

[12] = system: AIA rats; test: Adjuvant-Induced Arthritis (AIA) in rats, paw swelling and clinical signs; format: in vivo, rat; settings: AIA rats, 8 subcutaneous injections of 300 μg per rat on alternate days from day 7
[13] = 1.25 μg/ml peptide, compared with non-citrullinated matched peptide
[14] = PMA, ionomycin and brefeldin A in last 4 hours, compared with non-citrullinated matched peptide

Substance	expression level of TNF-α [1]	increase in mean percentage of CD4+CD25+Foxp3+ T cells ([2]; compared to medium)	induction of apoptosis ([3]; compared with the medium control)	decrease in mean percentage of pathogenic Th17 cells ([4]; compared to medium)	IFN-γ gene expression level [5]	increase in mean percentage of CD4+CD25+Foxp3+ T cells [2, 13]	mean expression levels of TGF-β [6]	TGF-β gene expression level [6]	decrease in mean percentage of pathogenic Th17 cells [4, 14]	TNF-α gene expression level [7]	IL-17 gene expression level [8]	mean apoptotic rate (Annexin-V positive cells) [9]	histological inflammatory score [10]	percentage of CD4+CD25+FoxP3+ regulatory T cells subset, statistical analysis ([11]; spleens of AIA rats, day 28, untreated 7.17±0.31)	Regulatory T cells subpopulation, representative outputs ([11]; splenocytes of AIA rats, day 28 post disease induction, untreated 6.2%)	clinical score post immunization [12]	induction of T cells apoptosis ([3]; compared with matched non-citrullinated peptide)
Infliximab: a TNF-α blocker, an antirheumatic drug that acts as an anti-inflammatory compound [reference compound]	downregulated	14%	28%	48%	–	–	–	–	–	–	–	–	–	–	–	–	–
HQCHQESTCitGRSRGRCGRSGS (HQCHQEST[Cit]GRSRGRCGRSGS; cysteine pairing not given here) [Fil-Cit, citrullinated peptide derived from filaggrin]	–	–	–	–	down-regulated	56%	Up-regulation	significantly up-regulated	21%	down-regulated	down-regulated	–	–	–	–	–	–
VRLRSSVESTRGRSRPAPPPARGLT [Non-Cit-ME]	–	–	–	–	–	–	–	–	–	–	–	13.8±1.3%	1.28±0.6	6.97±0.22%	7%	Reduction in clinical score	–
CitPAPPPISGGGYCitACit ([Cit]PAPPPISGGGY[Cit]A[Cit]) [β-Fib-Cit]	–	–	–	–	down-regulated	50%	significantly up-regulated	significantly up-regulated	5%	down-regulated	down-regulated	–	–	–	–	–	20%
